Data: US20050239656A1, “Pyridine compounds or salts thereof and herbicides containing the same” (priority 2002, published 2005)

Legend:
[1] = tested on: redroot pigweed; test: Test Example 1: foliage treatment, upland pot test; assay type: in vivo, Amaranthus retroflexus L.; conditions: active ingredient 500 g/ha, observed 18th to 23rd day, 0 = non-treated, 100 = complete kill
[2] = tested on: prickly sida; test: Test Example 1: foliage treatment, upland pot test; assay type: in vivo, Sida spinosa L.; conditions: active ingredient 500 g/ha, observed 18th to 23rd day, 0 = non-treated, 100 = complete kill
[3] = tested on: rice; test: Test Example 1: foliage treatment, upland pot test; assay type: in vivo, Oryza sativa L.; conditions: crop, active ingredient 500 g/ha, observed 18th to 23rd day, 0 = non-treated, 100 = complete kill
Method in brief: (§1)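 Visual growth-control scores (0 = untreated, 100 = complete kill) were taken 18–23 days after foliar spraying of a wettable powder or emulsifiable concentrate, diluted in 500 L/ha water with 0.1% (v/v) spreader. Treatment leaf stages: barnyardgrass 1.3–2.8, rice 1.2–2.6, wheat 1.3–2.4, soybean 0.1–0.4.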

[4] = tested on: green foxtail; test: Test Example 1: foliage treatment, upland pot test; assay type: in vivo, Setaria viridis L.; conditions: active ingredient 500 g/ha, observed 18th to 23rd day, 0 = non-treated, 100 = complete kill
[5] = tested on: soybean; test: Test Example 1: foliage treatment, upland pot test; assay type: in vivo, Glycine max Merr.; conditions: crop, active ingredient 500 g/ha, observed 18th to 23rd day, 0 = non-treated, 100 = complete kill
Method in brief: as §1

[6] = tested on: crabgrass; test: Test Example 1: foliage treatment, upland pot test; assay type: in vivo, Digitaria sanguinalis L.; conditions: active ingredient 500 g/ha, observed 18th to 23rd day, 0 = non-treated, 100 = complete kill
[7] = tested on: velvetleaf; test: Test Example 2: soil surface treatment, upland pot test; assay type: in vivo, Abutilon theophrasti MEDIC.; conditions: active ingredient 500 g/ha, observed 20th to 28th day
Method in brief: (§2)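 Readout was visual percent growth control (0 matching untreated, 100 complete kill) at days 20–28. Compound, as emulsifiable concentrate or wettable powder at a preset active-ingredient rate in 1,500 L/ha water, was sprayed onto sown upland soil one day after sowing.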

[8] = tested on: japanese bulrush; test: Test Example 3: paddy pot test, application under submerged conditions; assay type: in vivo, Scirpus juncoides; conditions: active ingredient 250 g/ha; submerged application at 0.5 leaf stage; visually observed 14 days after application; 0 = non-treated, 100 = complete kill
Method in brief: (§3)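 Paddy soil pots; seeds sown, lightly covered; flooded 0.5–1 cm in greenhouse; wapato tubers planted day 1–2; flood raised to 3–4 cm. Submerged pipette application at 0.5 leaf / primary leaf stage. Visual score day 14, 0–100%.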

[9] = tested on: barnyardgrass; test: as above; assay type: in vivo, Echinochloa crus-galli L.; conditions: active ingredient 250 g/ha; submerged application at 0.5 leaf stage; visually observed 14 days after application; 0 = non-treated, 100 = complete kill
Method in brief: as §3

[10] = tested on: japanese ribbon wapato; test: as above; assay type: in vivo, Sagittaria pygniaea; conditions: active ingredient 250 g/ha; submerged application at primary leaf stage; visually observed 14 days after application; 0 = non-treated, 100 = complete kill
Method in brief: as §3

[11] = tested on: velvetleaf; test: Test Example 1: foliage treatment, upland pot test; assay type: in vivo, Abutilon theophrasti MEDIC.; conditions: active ingredient 500 g/ha, observed 18th to 23rd day, 0 = non-treated, 100 = complete kill
[12] = tested on: barnyardgrass; test: Test Example 2: soil surface treatment, upland pot test; assay type: in vivo, Echinochloa crus-galli L.; conditions: active ingredient 500 g/ha, observed 20th to 28th day
Method in brief: as §2

[13] = tested on: corn; test: Test Example 1: foliage treatment, upland pot test; assay type: in vivo, Zea mays L.; conditions: crop, active ingredient 500 g/ha, observed 18th to 23rd day, 0 = non-treated, 100 = complete kill
Method in brief: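 Corn seeds were sown in upland field soil held in a 1/170,000 ha pot and grown to the 2.1 to 3.2 leaf stage. A wettable powder or emulsifiable concentrate of the test compound was diluted with water at 500 L/ha, given 0.1% (v/v) agricultural spreader, and sprayed onto the foliage with a small sprayer. Growth controlling degree (%) was scored visually 18th to 23rd days later, from 0 (non-treated) to 100 (complete kill).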

[14] = tested on: corn; test: Test Example 2: soil surface treatment, upland pot test; assay type: in vivo, Zea mays L.; conditions: active ingredient 500 g/ha, observed 20th to 28th day
Method in brief: as §2

[15] = tested on: soybean; test: as above; assay type: in vivo, Glycine max Merr.; conditions: active ingredient 500 g/ha, observed 20th to 28th day
Method in brief: as §2

[16] = tested on: rice; test: as above; assay type: in vivo, Oryza sativa L.; conditions: active ingredient 500 g/ha, observed 20th to 28th day
Method in brief: as §2

[17] = tested on: barnyardgrass; test: Test Example 1: foliage treatment, upland pot test; assay type: in vivo, Echinochloa crus-galli L.; conditions: active ingredient 500 g/ha, observed 18th to 23rd day, 0 = non-treated, 100 = complete kill
Method in brief: as §1

[18] = tested on: rice (var. Nihonbare); test: Test Example 3: paddy pot test, transplanted rice; assay type: in vivo, Oryza sativa L.; conditions: active ingredient 250 g/ha, applied 4th day after transplantation, visually observed 21st day after application, 0 = non-treated, 100 = complete kill
Method in brief: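 Visual crop-injury rating (0 = as untreated, 100 = complete kill, %) taken 21 days post-application. Treatment: formulated compound, water-diluted, pipetted into 3–4 cm flood water at a preset active-ingredient dose, 4 days after transplanting 2-leaf Nihonbare rice 3 cm deep in puddled paddy soil.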

[19] = tested on: redroot pigweed; test: Test Example 2: soil surface treatment, upland pot test; assay type: in vivo, Amaranthus retroflexus L.; conditions: active ingredient 500 g/ha, observed 20th to 28th day
Method in brief: as §2

[20] = tested on: green foxtail; test: as above; assay type: in vivo, Setaria viridis L.; conditions: active ingredient 500 g/ha, observed 20th to 28th day
Method in brief: as §2

[21] = tested on: crabgrass; test: as above; assay type: in vivo, Digitaria sanguinalis L.; conditions: active ingredient 500 g/ha, observed 20th to 28th day
Method in brief: as §2

[22] = tested on: prickly sida; test: as above; assay type: in vivo, Sida spinosa L.; conditions: active ingredient 500 g/ha, observed 20th to 28th day
Method in brief: as §2

| SMILES | Growth controlling degree (%) Redroot pigweed [1] | Growth controlling degree (%) Prickly sida [2] | Growth controlling degree (%) Rice [3] | Growth controlling degree (%) Green foxtail [4] | Growth controlling degree (%) Soybean [5] | Growth controlling degree (%) Crabgrass [6] | Growth controlling degree (%) Velvetleaf [7] | Growth controlling degree (%) Japanese bulrush [8] | Growth controlling degree (%) Barnyardgrass [9] | Growth controlling degree (%) Japanese ribbon wapato [10] | Growth controlling degree (%) Velvetleaf [11] | Growth controlling degree (%) Barnyardgrass [12] | Growth controlling degree (%) Corn [13] | Growth controlling degree (%) Corn [14] | Growth controlling degree (%) Soyabean [15] | Growth controlling degree (%) Rice [16] | Growth controlling degree (%) Barnyardgrass [17] | Growth controlling degree (%) Rice [18] | Growth controlling degree (%) Redroot pigweed [19] | Growth controlling degree (%) Green foxtail [20] | other results |
| --- | --- | --- | --- | --- | --- | --- | --- | --- | --- | --- | --- | --- | --- | --- | --- | --- | --- | --- | --- | --- | --- |
| Cc1ccccc1CC(=O)N(C)C(c1cnccc1C(F)(F)F)C(C)C (stereo not shown) [I-36] | 80% | 90% | 10% | 70% | 70% | 98% | 50% | 95% | 100% | 90% | 70% | 100% | 35% | 20% | 10% | 30% | 95% | 10% | 80% | 98% | Growth controlling degree (%) Crabgrass [21]: 98%; Growth controlling degree (%) Prickly sida [22]: 100% |
| COc1ccc(CC(=O)N(C)C(c2cnccc2C(F)(F)F)C(C)C)cc1 (stereo not shown) [I-38] | 80% | 70% | 10% | 60% | 60% | 70% | 0% | 70% | 100% | 85% | 90% | 100% | 40% | 10% | 0% | 20% | 70% | 30% | 80% | 80% | Growth controlling degree (%) Crabgrass [21]: 90%; Growth controlling degree (%) Prickly sida [22]: 100% |
| CC(C)C(c1cnccc1C(F)(F)F)N(C)C(=O)Cc1cccc(C(F)(F)F)c1 (stereo not shown) [I-40] | 80% | 80% | 50% | 70% | 60% | 95% | 70% | 50% | 100% | 50% | 90% | 95% | 90% | 50% | 30% | 20% | 40% | 0% | 90% | 100% | Growth controlling degree (%) Crabgrass [21]: 100%; Growth controlling degree (%) Prickly sida [22]: 100% |
| CC(C)C(c1cnccc1C(F)(F)F)N(C)C(=O)Cc1ccc(F)c(F)c1 (stereo not shown) [I-60] | 60% | 70% | 50% | 70% | 35% | 80% | 70% | 70% | 100% | 95% | 90% | 98% | 70% | 10% | 10% | 20% | 60% | 30% | 80% | 98% | Growth controlling degree (%) Crabgrass [21]: 100%; Growth controlling degree (%) Prickly sida [22]: 98% |
